Like-named read-outs stand apart in the source and are kept apart here.
Tests used:
[1] = test system: HRV (2); assay: Antirhinoviral H1-HeLa cell culture assay, HRV serotype 2; format: cell-based, human rhinovirus; settings: H1-HeLa cells, XTT
Description: (§1) In this cell protection assay, the ability of compounds to protect cells against HRV infection was measured by the XTT dye reduction method, which is described in Weislow et al., J. Natl. Cancer Inst. 1989, vol. 81, 577-586.
(§2) H1-HeLa cells were infected with HRV-14 at a multiplicity of infection (m.o.i.) of 0.13 (virus particles/cell) or mock-infected with medium only. Infected or mock-infected cells were resuspended at 8×10^5 cells per mL, and incubated with appropriate concentrations of the compounds to be tested. Two days later, XTT/PMS was added to test plates and the amount of formazan produced was quantified spectrophotometrically at 450/650 nm. The EC50 value was calculated as the concentration of compound that increased the percentage of formazan production in compound-treated, virus-infected cells to 50% of that produced by compound-free, mock-infected cells. The 50% cytotoxic dose (CC50) was calculated as the concentration of compound that decreased the percentage of formazan produced in compound-treated, mock-infected cells to 50% of that produced by compound-free, mock-infected cells. The therapeutic index (TI) was calculated by dividing the CC50 value by the EC50 value.
(§3) All strains of human rhinovirus (HRV) for use in this assay were purchased from American Type Culture Collection (ATCC), except for HRV serotype-14 (produced from the infectious cDNA clone constructed by Dr. Robert Rueckert, Institute for Molecular Virology, University of Wisconsin, Madison, Wis.). HRV stocks were propagated and viral assays were performed in H1-HeLa cells (ATCC). Cells were grown in minimal essential medium with 10% fetal bovine serum, available from Life Technologies (Gaithersburg, Md.).
(§4) The compounds were tested against control compounds WIN 51711, WIN 52084, and WIN 54954 (obtained from Sterling-Winthrop Pharmaceuticals), Pirodavir (obtained from Janssen Pharmaceuticals), and Pleconaril (prepared according to the method described in Diana et al., J. Med. Chem 1995, vol. 38, 1355). Antiviral data obtained for the test compounds are shown in Tables 1 and 3, where all data are for HRV serotype-14 unless otherwise noted in parentheses.

[2] = molecular target: T1, rhinovirus 3C protease from HRV serotype-14 (Human rhinovirus 14, UniProt P03303); assay: Inhibition of rhinovirus 3C protease (FRET assay), serotype 14; format: biochemical; settings: HRV serotype-14 3C protease; progress curves in enzyme start experiments; read-out: Protease Inhibition kobs/[I]
T1 construct: Recombinant rhinovirus 3C proteases; made in house
T1 sequence (P03303 1538-1719): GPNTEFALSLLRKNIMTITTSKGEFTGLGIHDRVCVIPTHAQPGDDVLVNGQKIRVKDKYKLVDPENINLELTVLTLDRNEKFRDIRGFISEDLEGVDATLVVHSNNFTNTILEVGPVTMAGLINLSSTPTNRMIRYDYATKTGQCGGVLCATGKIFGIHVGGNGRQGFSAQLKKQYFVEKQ
Description: (§5) Stock solutions (50 mM, in DMSO) of various compounds were prepared; dilutions were in the same solvent. Recombinant rhinovirus 3C proteases (see Birch et al., “Purification of recombinant human rhinovirus 14 3C protease expressed in Escherichia coli,” Protein Expr. Pur. 1995, 6(5), 609-618) from serotypes 14, 16, and 2 were prepared by the following standard chromatographic procedures: (1) ion exchange using Q Sepharose Fast Flow from Pharmacia; (2) affinity chromatography using Affi-Gel Blue from Biorad; and (3) sizing using Sephadex G-100 from Pharmacia. Each assay sample contained 2% DMSO, 50 mM tris pH 7.6, 1 mM EDTA, a test compound at the indicated concentration, approximately 1 μM substrate, and 50-100 nM protease. The kobs/I values were obtained from reactions initiated by addition of enzyme rather than substrate. RVP activity was measured in the fluorescence resonance energy transfer assay. The substrate was (N-terminal) DABCYL-(Gly-Arg-Ala-Val-Phe-Gln-Gly-Pro-Val-Gly)-EDANS. In the uncleaved peptide, the EDANS fluorescence was quenched by the proximal DABCYL moiety. When the peptide was cleaved, the quenching was relieved, and activity was measured as an increase in fluorescence signal. In Table 1, all data are for rhinovirus 3C protease from HRV serotype-14 (produced from the infectious cDNA clone constructed by Dr. Robert Rueckert, Institute for Molecular Virology, University of Wisconsin, Madison, Wis.). […] The data in the column designated kobs/[I] were measured from progress curves in enzyme start experiments.

[3] = test system: HRV (1A); assay: Antirhinoviral H1-HeLa cell culture assay, HRV serotype 1A; format: cell-based; settings: Human rhinovirus sp., H1-HeLa cells, XTT
Description: as §1, §2, §3, §4

[4] = test system: HRV-14; assay: Antirhinoviral H1-HeLa cell culture assay, HRV-14; format: cell-based, human rhinovirus; settings: Rhinovirus B, HRV14, H1-HeLa, HRV serotype-14, H1-HeLa cells
Description: as §1, §2, §3, §4

[5] = test system: HRV (89); assay: Antirhinoviral H1-HeLa cell culture assay, HRV serotype 89; format: cell-based, human rhinovirus; settings: H1-HeLa cells, XTT
Description: as §1, §2, §3, §4

[6] = test system: HRV (10); assay: Antirhinoviral H1-HeLa cell culture assay, HRV serotype 10; format: cell-based, human rhinovirus; settings: H1-HeLa cells, XTT
Description: as §1, §2, §3, §4

[7] = test system: HRV (3); assay: Antirhinoviral H1-HeLa cell culture assay, HRV serotype 3; format: cell-based, human rhinovirus; settings: H1-HeLa cells, XTT
Description: as §1, §2, §3
(§6) The compounds were tested against control compounds WIN 51711, WIN 52084, and WIN 54954 (obtained from Sterling-Winthrop Pharmaceuticals), Pirodavir (obtained from Janssen Pharmaceuticals), and Pleconaril (prepared according to the method described in Diana et al., J. Med. Chem 1995, vol. 38, 1355). […]

[8] = test system: HRV (13); assay: Antirhinoviral H1-HeLa cell culture assay, HRV serotype 13; format: cell-based, human rhinovirus; settings: H1-HeLa cells, XTT
Description: as §1, §2, §3, §6

[9] = test system: HRV (17); assay: Antirhinoviral H1-HeLa cell culture assay, HRV serotype 17; format: cell-based, human rhinovirus; settings: H1-HeLa cells, XTT
Description: as §1, §2, §3, §6

[10] = test system: HRV (9); assay: Antirhinoviral H1-HeLa cell culture assay, HRV serotype 9; format: cell-based, human rhinovirus; settings: H1-HeLa cells, XTT
Description: as §1, §2, §3, §6

[11] = test system: HRV (39); assay: Antirhinoviral H1-HeLa cell culture assay, HRV serotype 39; format: cell-based, human rhinovirus; settings: H1-HeLa cells, XTT
Description: as §1, §2, §3, §6

[12] = Cytotoxicity in mock-infected H1-HeLa cells (antirhinoviral assay, XTT); format: cell-based; settings: human, 50% cytotoxic dose, two days
Description: as §2, §3

[13] = molecular target: T2, rhinovirus 3C protease, serotype 2 (Human rhinovirus 2, UniProt P04936); assay: Inhibition of rhinovirus 3C protease (FRET assay), serotype 2; format: biochemical; settings: Rhinovirus Serotype (2) 3C protease; read-out: kobs/I
T2 construct: Recombinant rhinovirus 3C proteases; made in house
T2 sequence (P04936 1508-1690): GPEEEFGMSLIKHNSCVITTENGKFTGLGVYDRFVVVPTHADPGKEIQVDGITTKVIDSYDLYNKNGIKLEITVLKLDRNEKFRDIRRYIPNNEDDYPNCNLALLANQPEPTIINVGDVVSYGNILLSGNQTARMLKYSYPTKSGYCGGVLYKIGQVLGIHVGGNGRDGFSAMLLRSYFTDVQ
Description: as §5

[14] = test system: Echovirus type 11 (EV 11); assay: Anti-echoviral cell culture assay, EV 11; format: cell-based; settings: Enterovirus B, MRC5, 96 h
Description: Echovirus type 11 (EV 11) and enterovirus type 70 (EV 70) were purchased from ATCC (Rockville, Md.). Virus stocks were propagated and antiviral assays were performed in MRC-5 cells (ATCC). Cells were grown in minimal essential medium with 10% fetal bovine serum (Life Technologies, Gaithersburg, Md.).
The ability of compounds to protect cells against either EV 11 or EV 70 infection was measured by the XTT dye reduction method (Weislow et al., J. Natl. Cancer Inst. 1989, vol. 81, 577-586). MRC-5 cells were infected with EV 11 or EV 70 at an m.o.i. of 0.003 or 0.004, respectively, or mock-infected with medium only. Infected or uninfected cells were added at 1×10^4 cells per well and incubated with appropriate concentrations of compound. Four days later, XTT/PMS was added to test plates, and the amount of formazan produced was quantified spectrophotometrically at 450/650 nm. The EC50 was calculated as the concentration of compound that increased the formazan production in compound-treated, virus-infected cells to 50% of that produced by compound-free, uninfected cells. The 50% cytotoxic dose (CC50) was calculated as the concentration of compound that decreased formazan production in compound-treated, uninfected cells to 50% of that produced in compound-free, uninfected cells. The therapeutic index (TI) was calculated by dividing the CC50 by the EC50.
The compounds were tested against control compounds Pirodavir (obtained from Janssen Pharmaceuticals) and Pleconaril (prepared according to Diana et al., J. Med. Chem. 1995, vol. 38, 1355). Antiviral data obtained for the test compounds against strain EV 11 and EV 70 are shown below in Table 5.

[15] = test system: Coxsackievirus type A-21 (CAV-21); assay: Anticoxsackieviral cell culture assay, CAV-21; format: cell-based; settings: H1-HeLa, 48 h
Description: (§7) Coxsackievirus types A-21 (CAV-21) and B3 (CVB-3) were purchased from American Type Culture Collection (ATCC, Rockville, Md.). Virus stocks were propagated and antiviral assays were performed in H1-HeLa cells (ATCC). Cells were grown in minimal essential medium with 10% fetal bovine serum (Life Technologies, Gaithersburg, Md.).
(§8) The ability of compounds to protect cells against either CAV-21 or CVB-3 infection was measured by the XTT dye reduction method. This method is described in Weislow et al., J. Natl. Cancer Inst. 1989, vol. 81, 577-586. H1-HeLa cells were infected with CAV-21 or CVB-3 at a multiplicity of infection (m.o.i.) of 0.025 or 0.075, respectively, or mock-infected with medium only. H1-HeLa cells were plated at 4×10^4 cells per well in a 96-well plate and incubated with appropriate concentrations of the test compound. One day (CVB-3) or two days (CAV-21) later, XTT/PMS was added to test plates and the amount of formazan produced was quantified spectrophotometrically at 450/650 nm. The EC50 was calculated as the concentration of compound that increased the formazan production in compound-treated, virus-infected cells to 50% of that produced by compound-free, uninfected cells. The 50% cytotoxic dose (CC50) was calculated as the concentration of compound that decreased formazan production in compound-treated, uninfected cells to 50% of that produced in compound-free, uninfected cells. The therapeutic index TI) was calculated by dividing the CC50 by the EC50.
(§9) The compounds were tested against control compounds WIN 54954 (obtained from Sterling-Winthrop Pharmaceuticals), Pirodavir (obtained from Janssen Pharmaceuticals), and Pleconaril (prepared according to Diana et al., J. Med. Chem. 1995, 38, 1355).

[16] = test system: Coxsackievirus type B3 (CVB-3); assay: Anticoxsackieviral cell culture assay, CVB-3; format: cell-based; settings: H1-HeLa, 24 h
Description: as §7, §8, §9

[17] = Table 1, XTT dye reduction, read-out: Cell Protection EC50

| Structure (SMILES) | kinact/KI [2] [M⁻¹ s⁻¹] | EC50 [3] [nM] | EC50 [4, 17] [nM] | EC50 ([4]; Table 3, XTT, read-out: EC50) [nM] | CC50 at 2 days [12] [nM] | EC50 ([6]; Human rhinovirus sp., H1-HeLa) [nM] | also measured |
| --- | --- | --- | --- | --- | --- | --- | --- |
| CCOC(=O)/C=C/[C@H](CCC(N)=O)NC(=O)[C@H](Cc1ccccc1)NC(=O)[C@H](CC(C)C)NC(=O)c1cc(C)on1 [Compound A-1, Ethyl-3-((5′-Methylisoxazole-3′-carbonyl)-L-Leu-L-Phe-L-Gin)-E-Propenoate] | 260000 | 1000 | 250 | 250 | – | – | EC50 ([1]; Human rhinovirus sp., H1-HeLa): 410 nM; EC50 ([5]; Human rhinovirus sp.): 220 nM |
| CCOC(=O)/C=C/[C@H](CCC(N)=O)NC(=O)[C@H](Cc1ccccc1)NC(=O)[C@H](CC(C)C)NC(=O)c1ccno1 [Compound A-2, Ethyl-3-((Isoxazole-5′-carbonyl)-L-Leu-L-Phe-L-Gln)-E-Propenoate] | 46900 | – | 1600 | 1600 | – | – | melting point: 217 to 220 °C |
| CCOC(=O)/C=C/[C@H](C[C@@H]1CCNC1=O)NC(=O)[C@H](Cc1ccc(F)cc1)NC(=O)[C@@H](NC(=O)c1cc(C)on1)C(C)(C)C [Compound A-7, Ethyl-3-{(5′-Methylisoxazole-3′-carbonyl)-L-α-(t-Butyl-Gly)-L-(4-F-Phe)-L-((S)-Pyrrol-Ala)}-E-Provenoate] | 980000 | – | 4 | – | – | – | EC50 [1]: 20 nM; EC50 [6]: 60 nM; EC50 [7]: 20 nM; EC50 [8]: 30 nM; EC50 [9]: 20 nM; EC50 [10]: 40 nM; EC50 [11]: 20 nM; EC50 [5]: 20 nM |
| CCOC(=O)/C=C/[C@H](CCC(N)=O)NC(=O)[C@H](Cc1ccc(C)cc1)NC(=O)[C@@H](NC(=O)C1SCCS1)C(C)(C)C [Compound A-15] | 237000 | 7100 | 220 | 220 | > 100000 | 2700 | – |
| CCOC(=O)/C=C/[C@H](CCC(N)=O)NC(=O)[C@H](Cc1ccc(C)cc1)NC(=O)[C@@H](NC(=O)c1ccc[nH]1)C(C)(C)C [Compound A-16] | 173000 | 4800 | 450 | 450 | > 100000 | 4500 | – |
| CCOC(=O)/C=C/[C@H](CCC(N)=O)NC(=O)[C@H](Cc1ccc(F)cc1)NC(=O)[C@@H](NC(=O)C1SCCS1)C(C)(C)C [Compound A-17] | 167000 | 1800 | 60 | 60 | > 100000 | 3300 | – |
| CCOC(=O)/C=C/[C@H](CCC(N)=O)NC(=O)[C@H](Cc1ccccc1)NC(=O)[C@H](CC(C)C)NC(=O)c1nc(C)c[nH]1 [Compound A-21] | 17800 | – | 2500 | 2500 | > 100000 | – | – |
| CCOC(=O)/C=C/[C@H](C[C@@H]1CCNC1=O)NC(=O)[C@H](Cc1ccccc1)NC(=O)[C@H](CC(C)C)NC(=O)OCc1ccccc1 [Compound A-24, Ethyl-3-{Cbz-L-Leu-L-Phe-L-((S)-Pyrrol-Ala)}-E-Propenoate] | 257000 | – | 100 | 100 | – | – | kinact/KI [13]: 31000 M⁻¹ s⁻¹ |
| CCOC(=O)/C=C/[C@H](CCC(N)=O)NC(=O)[C@@H](CC(=O)[C@@H](NC(=O)c1cc(C)on1)C(C)C)Cc1ccc(F)cc1 [Compound B-1, Ethyl-3-[(5′-Methylisoxazole-3′-carbonyl)-L-ValΨ(COCH2)-L-(4-F-Phe)-L-Gln}-E-Propenoate] | 240000 | 300 | 100 | 100 | – | 400 | – |
| Cc1cc(CCCOc2c(C)cc(-c3noc(C(F)(F)F)n3)cc2C)on1 [Pleconaril, reference compound] | – | – | – | 10 | – | – | EC50 [14]: 160 nM; EC50 [15]: 90 nM; EC50 [16]: > 10000 nM |
